Laboratory results: US20250197799A1, “CELLS DERIVED FROM POLYPEDILUM VANDERPLANKI AND ODOR SENSOR EQUIPPED THEREWITH” (University of Maryland, College Park, priority 2022, published 2025)

Columns and labels:
[1] = target: T1, Orco-Or47a (Drosophila melanogaster, UniProt P81921+Q9VNB5); experiment: Exogenous membrane protein function before drying and after drying-rehydration, Orco-Or47a stable expression cell line; type: cell-based; set-up: remnant residues; expressed in transfected cells; host or cells: Pv11 cells (Polypedilum vanderplanki), CRIS-PITCh knock-in at the Pv.00443 locus downstream of the 121 promoter, Zeocin selection and single-cell sorting; conditions: before drying
T1 sequence (Q9VNB5 1-486): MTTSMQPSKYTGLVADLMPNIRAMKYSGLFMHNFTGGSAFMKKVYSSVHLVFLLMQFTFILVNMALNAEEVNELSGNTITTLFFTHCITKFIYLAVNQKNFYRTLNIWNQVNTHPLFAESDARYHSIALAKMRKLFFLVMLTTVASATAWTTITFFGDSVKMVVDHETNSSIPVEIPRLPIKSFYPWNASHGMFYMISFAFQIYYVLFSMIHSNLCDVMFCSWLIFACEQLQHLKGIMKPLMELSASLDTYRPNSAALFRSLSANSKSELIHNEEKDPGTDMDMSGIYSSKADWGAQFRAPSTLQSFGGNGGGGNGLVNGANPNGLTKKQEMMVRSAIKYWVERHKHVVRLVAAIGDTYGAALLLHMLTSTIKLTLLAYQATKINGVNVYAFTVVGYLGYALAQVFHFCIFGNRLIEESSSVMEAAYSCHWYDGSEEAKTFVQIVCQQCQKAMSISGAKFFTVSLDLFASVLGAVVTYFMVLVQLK
T1 sequence (P81921 1-385): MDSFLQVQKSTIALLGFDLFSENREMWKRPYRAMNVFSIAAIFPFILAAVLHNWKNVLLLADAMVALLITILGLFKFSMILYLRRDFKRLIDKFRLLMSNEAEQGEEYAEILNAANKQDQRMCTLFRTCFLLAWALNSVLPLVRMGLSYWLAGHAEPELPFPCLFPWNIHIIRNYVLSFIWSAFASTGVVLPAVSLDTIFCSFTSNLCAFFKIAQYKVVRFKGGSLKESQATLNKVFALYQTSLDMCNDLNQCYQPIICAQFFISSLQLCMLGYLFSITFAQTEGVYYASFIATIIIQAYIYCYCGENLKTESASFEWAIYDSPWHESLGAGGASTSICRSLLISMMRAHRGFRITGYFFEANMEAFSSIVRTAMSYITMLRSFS
Method: To assess the drought tolerance of the cell lines, the cells were dried according to the following protocol. 4×10^7 Pv11-GCaMP6f stable expression cell lines were centrifuged at 700 g for 3 minutes and the supernatant removed. The precipitated cells were suspended in a 600 mM trehalose mix of 600 mM trehalose and IPL-41 medium at a ratio of 9:1, transferred to a 2 ml flask, and incubated at 25° C. for 48 hours. After 48 hours, the obtained cells were centrifuged at 700 g for 3 minutes and the supernatant was removed. The sedimented cells were suspended in 400 μl of 600 mM trebalose mix, and 40 μl were dropped onto a 35 mm dish. The 35 mm dish was dried for 10 days under conditions of 25° C. and humidity of 10% or less.
6. Assessment of exogenous membrane protein function after drying-rehydration. Using the Orco stable expression cell line and Orco-Or47a stable expression cell line, in order to assess the function of exogenous membrane proteins before drying and after 1 hour of rehydration after drying, fluorescence intensity generated in response to stimulation with VUAA1 (Orco agonist) or pentyl acetate (ligand of Or47a) was measured in the same manner as in 3.2 above.
The fluorescence intensity was digitized from the photograph, and ΔF/F was calculated according to the following formula:
Where the summation Σi=1^n is over the n cells in the image, Fi,after means the fluorescence intensity of the cell i after adding the ligand solution, and Fi,0 means the fluorescence intensity of the cell i before adding the ligand solution.
Specifically, a fluorescence image was taken under the condition in which the excitation wavelength/fluorescence wavelength was 488 nm/525 nm. In the fluorescence intensity quantification, the cells were identified in the photographed image, and the fluorescence intensity (F) was measured for each time. The initial values of fluorescence intensity (F0) were subtracted from the measured fluorescence intensity at each time to obtain the amount of change in fluorescence (ΔF), which was then normalized by dividing by the initial value of fluorescence intensity (F0) to obtain (Δ F/F0). A number of cells n were selected from the captured image, ΔF/F0 were produced for each, and the average value (including standard deviation, SD) of the results was graphed. For example, 25 cells were selected from the captured image, ΔF/F0 for each were produced, and the averaged results (including SD) were graphed. […] The Orco-Or47a stable expression cell line before drying responded to the Orco agonist (VUAA1) and the specific ligand of Or47a, pentyl acetate.

[2] = system: Orco-Or47a; experiment: Response after rehydration with cycloheximide treatment, Orco-Or47a stable expression cell line; type: cell-based, Drosophila melanogaster
Method: 7. Confirmation that exogenous membrane protein responses in Orco-Or47a stable expression cell lines immediately after rehydration are not due to de novo protein synthesis. To confirm that the membrane protein response of the Orco-Or47a stable expression cell line immediately after rehydration was not due to de novo protein synthesis, cells were treated with cycloheximide (CHX, a protein synthesis inhibitor).
A previous study reported that 0.35 mM of cycloheximide is able to inhibit protein production in Pv11 cells. Therefore, also in this experiment, cycloheximide was dissolved in IPL-41 medium so that the cycloheximide concentration was 0.35 mM. An IPL-41 medium with 0.01 mM, 0.07 mM and 0.7 mM cycloheximide was also prepared. […] One hour after rehydration and 24 hours after rehydration, the same operation as in 3.6 above was performed, and the fluorescence intensity was measured and analyzed. […] FIG. 7A and FIG. 7B are graphs showing changes in fluorescence intensity of the Orco-Or47a stable expression cell line response to VUAA1 and pentyl acetate, respectively, one hour after drying and rehydration. FIGS. 7C and 7D are graphs showing changes in fluorescence intensity, respectively, in response to VUAA1 and pentyl acetate of Orco-Or47a stable expression cell lines 24 hours after drying and rehydration.

[3] = system: Pv11 cells; conditions: previous study; cited from earlier work
[4] = system: GCaMP6f stable expression cell line; experiment: Functionality of GCaMP6f with ionomycin; type: cell-based, Polypedilum vanderplanki; conditions: ionomycin final concentration 1 μM, DMSO 1%; DMSO negative control showed no increase
Method: 3.2 The functionality of GCaMP6f. The functionality of GCaMP6f in the resulting cell lines was evaluated using Ionomycin (Ionomycin; Fujifilm Wako Pure Chemical) to increase the intracellular concentration of calcium ions to provide functional confirmation of exogenous proteins in the GCaMP6f stable-expressing cell line. Ionomycin was dissolved in dimethyl sulfoxide (DMSO; Fujifilm Wako Pure Chemical Industries, Ltd.), adjusted to a final DMSO concentration of 1% and an ionomycin final concentration of 1 μM in IP1-41 medium, and added to the cell solution. As a negative control, DMSO was adjusted to a final concentration of 1% in IP 1-41 medium and added to the cell solution. Bright-field images and fluorescence images (ex: 470/40 nm; em: 525/50 nm) of the cells before and after solution addition were taken (all-in-one fluorescence microscope BZ-X710, Keyence). […] Therefore, it was confirmed that the expressed GCaMP6f functioned in the obtained stable expression cell line. For statistical analysis of fluorescence intensity, one-way ANOVA was performed using Prism8 (GraphPad), followed by Tukey's multiple comparison test as a post-hoc test, […]

CC(=O)c1ccccc1 [acetophenone]
response as change in fluorescence intensity (ΔF/F0) [1]: did not react

C[C@@H]1C[C@@H]([C@H](O)CC2CC(=O)NC(=O)C2)C(=O)[C@@H](C)C1 [cycloheximide]
effect of cycloheximide on function of the exogenous membrane protein ([2]; 1 hour after rehydration, cycloheximide 0.01, 0.07, 0.35, 0.7 mM, response to VUAA1 or pentyl acetate): no significant difference
effect of CHX treatment on response ([2]; 24 hours after rehydration, response to VUAA1 and pentyl acetate): less responsive
concentration able to inhibit protein production [3]: 0.35 mM

C[C@H](CCC(=O)O)C[C@H](C)C[C@H](C)C(=O)/C=C(\O)[C@H](C)C[C@H](C)C/C=C/[C@@H](C)[C@@H](O)[C@@H](C)[C@@H](O)C[C@@H]1CC[C@@](C)([C@H]2CC[C@@](C)([C@@H](C)O)O2)O1 [ionomycin, Ionomycin]
fluorescence after addition [4]: stronger fluorescence than before the addition
